Experimental data: ChEMBL document CHEMBL1128860, “5-O-Carboxymethyl piperazide derivatives of serotonin: a new class of potent and selective 5-HT1D receptor agonists” (Bioorg Med Chem Lett, 1995)

Assays:
[1] = target: T1, 5-hydroxytryptamine receptor 4 (Homo sapiens, UniProt Q13639); experiment: Compound was tested for its affinity towards 5-hydroxy tryptamine 4 receptor
[2] = target: T2, Muscarinic acetylcholine receptor M4 (Homo sapiens, UniProt P08173); experiment: Compound was tested for its affinity towards muscarinic (M) receptor
T2 sequence (P08173 whole entry): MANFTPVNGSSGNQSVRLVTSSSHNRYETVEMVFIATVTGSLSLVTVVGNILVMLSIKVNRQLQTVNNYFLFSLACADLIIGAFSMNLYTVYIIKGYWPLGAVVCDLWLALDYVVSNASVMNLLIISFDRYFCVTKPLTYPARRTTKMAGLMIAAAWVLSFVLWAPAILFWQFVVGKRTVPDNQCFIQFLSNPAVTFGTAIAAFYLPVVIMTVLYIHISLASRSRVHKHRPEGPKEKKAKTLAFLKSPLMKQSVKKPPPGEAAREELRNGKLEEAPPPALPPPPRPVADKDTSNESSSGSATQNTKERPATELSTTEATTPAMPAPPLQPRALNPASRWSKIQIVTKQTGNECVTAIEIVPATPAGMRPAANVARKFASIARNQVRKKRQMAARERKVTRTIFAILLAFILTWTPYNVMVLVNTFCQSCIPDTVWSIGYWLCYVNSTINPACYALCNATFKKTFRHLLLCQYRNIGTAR

[3] = target: Serotonin 2 (5-HT2) receptor (Homo sapiens, UniProt P41595+P28223+P28335); experiment: Compound was tested for its affinity towards 5-hydroxytryptamine 2 receptor; format: protein assay
[4] = target: D(2) dopamine receptor (Homo sapiens, UniProt P14416); experiment: Compound was tested for its affinity towards dopaminergic (D2) receptor
Chain of D(2) dopamine receptor (P14416 whole entry): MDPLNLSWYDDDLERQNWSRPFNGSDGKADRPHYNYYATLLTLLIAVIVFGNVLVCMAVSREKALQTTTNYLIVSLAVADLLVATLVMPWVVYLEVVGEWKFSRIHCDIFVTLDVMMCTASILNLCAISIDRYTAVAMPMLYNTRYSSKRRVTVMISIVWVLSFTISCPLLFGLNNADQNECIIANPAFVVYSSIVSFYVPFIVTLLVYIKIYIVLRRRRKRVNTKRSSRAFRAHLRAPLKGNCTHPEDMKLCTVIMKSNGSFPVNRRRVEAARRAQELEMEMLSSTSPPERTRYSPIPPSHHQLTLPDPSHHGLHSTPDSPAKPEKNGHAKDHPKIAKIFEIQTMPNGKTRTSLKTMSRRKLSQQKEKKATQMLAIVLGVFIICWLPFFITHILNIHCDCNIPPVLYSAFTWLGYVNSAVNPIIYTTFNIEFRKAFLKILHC

[5] = target: Histamine H1 receptor (Homo sapiens, UniProt P35367); experiment: Compound was tested for its affinity towards histaminergic (H 1) receptor
Chain of Histamine H1 receptor (P35367 whole entry): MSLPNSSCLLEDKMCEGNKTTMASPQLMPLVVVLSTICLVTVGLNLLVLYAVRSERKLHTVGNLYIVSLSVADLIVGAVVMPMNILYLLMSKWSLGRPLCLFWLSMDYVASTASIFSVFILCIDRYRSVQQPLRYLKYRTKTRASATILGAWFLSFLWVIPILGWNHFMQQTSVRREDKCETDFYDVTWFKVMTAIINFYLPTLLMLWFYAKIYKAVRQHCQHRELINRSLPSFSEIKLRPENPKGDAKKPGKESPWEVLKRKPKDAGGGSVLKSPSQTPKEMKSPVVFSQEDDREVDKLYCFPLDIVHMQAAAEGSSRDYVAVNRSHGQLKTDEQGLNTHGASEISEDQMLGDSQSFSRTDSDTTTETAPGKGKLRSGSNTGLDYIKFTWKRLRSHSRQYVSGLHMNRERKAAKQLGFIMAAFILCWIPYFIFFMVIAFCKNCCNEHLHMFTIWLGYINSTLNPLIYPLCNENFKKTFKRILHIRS

[6] = target: T3, 5-hydroxytryptamine receptor 2C (Homo sapiens, UniProt P28335); experiment: (§1) Compound was tested for its affinity towards 5-hydroxytryptamine 1C receptor
T3 sequence (P28335 whole entry): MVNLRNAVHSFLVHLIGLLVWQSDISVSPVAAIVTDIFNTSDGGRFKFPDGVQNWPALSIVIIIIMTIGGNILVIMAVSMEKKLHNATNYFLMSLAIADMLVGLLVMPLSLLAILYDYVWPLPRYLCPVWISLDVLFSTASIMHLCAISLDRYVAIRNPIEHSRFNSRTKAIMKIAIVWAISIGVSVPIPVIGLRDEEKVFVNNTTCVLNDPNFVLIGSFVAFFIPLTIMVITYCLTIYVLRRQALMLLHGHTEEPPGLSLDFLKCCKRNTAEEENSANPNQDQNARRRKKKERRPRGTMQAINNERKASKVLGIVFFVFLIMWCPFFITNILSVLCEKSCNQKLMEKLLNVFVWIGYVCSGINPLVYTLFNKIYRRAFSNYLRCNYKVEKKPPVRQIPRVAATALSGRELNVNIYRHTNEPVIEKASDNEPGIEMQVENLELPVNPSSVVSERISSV

[7] = target: T4, 5-hydroxytryptamine receptor 3A (Homo sapiens, UniProt P46098); experiment: (§2) Compound was tested for its affinity towards 5-hydroxytryptamine 3 receptor
T4 sequence (P46098 whole entry): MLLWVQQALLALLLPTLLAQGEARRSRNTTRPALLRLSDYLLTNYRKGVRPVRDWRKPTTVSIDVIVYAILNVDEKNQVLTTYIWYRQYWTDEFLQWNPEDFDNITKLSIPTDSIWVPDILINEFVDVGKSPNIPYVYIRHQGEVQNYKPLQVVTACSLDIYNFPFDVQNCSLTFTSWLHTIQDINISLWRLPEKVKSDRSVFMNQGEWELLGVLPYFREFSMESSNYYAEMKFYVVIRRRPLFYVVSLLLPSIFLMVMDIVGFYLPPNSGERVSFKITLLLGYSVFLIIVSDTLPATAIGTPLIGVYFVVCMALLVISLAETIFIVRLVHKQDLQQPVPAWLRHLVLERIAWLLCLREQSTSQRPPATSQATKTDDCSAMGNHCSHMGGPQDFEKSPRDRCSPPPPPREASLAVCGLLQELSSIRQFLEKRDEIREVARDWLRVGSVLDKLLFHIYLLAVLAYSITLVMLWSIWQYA

[8] = target: T5, Adrenergic receptor alpha-1 (Homo sapiens, UniProt P35348+P25100+P35368); experiment: Compound was tested for its affinity towards Alpha-1 adrenergic receptor; format: protein assay
T5 sequence (P35348 whole entry): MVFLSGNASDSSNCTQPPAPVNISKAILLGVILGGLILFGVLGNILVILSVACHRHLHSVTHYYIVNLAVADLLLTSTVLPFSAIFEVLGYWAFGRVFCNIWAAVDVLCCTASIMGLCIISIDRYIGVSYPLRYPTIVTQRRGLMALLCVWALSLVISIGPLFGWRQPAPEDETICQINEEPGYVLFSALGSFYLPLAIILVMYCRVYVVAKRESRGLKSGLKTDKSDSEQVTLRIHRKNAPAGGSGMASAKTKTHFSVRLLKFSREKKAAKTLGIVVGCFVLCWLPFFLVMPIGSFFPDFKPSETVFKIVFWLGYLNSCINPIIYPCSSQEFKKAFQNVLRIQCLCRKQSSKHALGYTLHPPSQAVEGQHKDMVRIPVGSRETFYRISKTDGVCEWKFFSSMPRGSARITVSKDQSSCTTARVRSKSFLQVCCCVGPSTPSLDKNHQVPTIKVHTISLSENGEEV
T5 sequence (P25100 whole entry): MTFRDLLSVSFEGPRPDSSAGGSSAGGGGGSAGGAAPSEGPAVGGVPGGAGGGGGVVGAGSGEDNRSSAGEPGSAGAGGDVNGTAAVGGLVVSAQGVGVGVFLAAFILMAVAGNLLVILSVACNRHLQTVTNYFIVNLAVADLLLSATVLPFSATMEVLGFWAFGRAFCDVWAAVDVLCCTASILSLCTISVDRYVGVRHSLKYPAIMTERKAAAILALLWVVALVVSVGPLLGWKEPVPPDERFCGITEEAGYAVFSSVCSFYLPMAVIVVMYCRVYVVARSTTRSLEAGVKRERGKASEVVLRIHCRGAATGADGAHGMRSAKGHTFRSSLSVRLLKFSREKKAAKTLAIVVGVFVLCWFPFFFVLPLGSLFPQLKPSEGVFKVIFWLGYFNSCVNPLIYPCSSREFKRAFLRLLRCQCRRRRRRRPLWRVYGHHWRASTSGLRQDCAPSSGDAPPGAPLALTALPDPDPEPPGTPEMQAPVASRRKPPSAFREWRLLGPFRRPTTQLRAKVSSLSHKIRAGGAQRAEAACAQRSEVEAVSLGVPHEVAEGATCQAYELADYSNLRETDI
T5 sequence (P35368 whole entry): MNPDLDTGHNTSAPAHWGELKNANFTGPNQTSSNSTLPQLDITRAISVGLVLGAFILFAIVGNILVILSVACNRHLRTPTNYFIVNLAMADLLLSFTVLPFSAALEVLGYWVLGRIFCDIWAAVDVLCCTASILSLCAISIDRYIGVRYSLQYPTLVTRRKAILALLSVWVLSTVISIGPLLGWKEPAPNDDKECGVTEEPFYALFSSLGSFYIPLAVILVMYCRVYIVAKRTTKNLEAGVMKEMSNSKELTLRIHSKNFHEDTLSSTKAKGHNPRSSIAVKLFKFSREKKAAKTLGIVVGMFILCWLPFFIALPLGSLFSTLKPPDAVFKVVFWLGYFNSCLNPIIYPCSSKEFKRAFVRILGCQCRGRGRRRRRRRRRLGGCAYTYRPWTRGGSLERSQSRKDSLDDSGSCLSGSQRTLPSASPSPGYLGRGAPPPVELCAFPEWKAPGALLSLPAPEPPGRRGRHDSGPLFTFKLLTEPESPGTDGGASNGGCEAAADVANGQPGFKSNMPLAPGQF

[9] = organism: Oryctolagus cuniculus; experiment: Compound was tested for its ability to contract rabbit saphenous vein; format: functional
[10] = target: 5-hydroxytryptamine receptor 1D (Cavia porcellus, UniProt Q60484); experiment: Binding affinity towards guinea pig 5-hydroxytryptamine 1D receptor was determined
Chain of 5-hydroxytryptamine receptor 1D (Cavia porcellus, UniProt Q60484) (Q60484 whole entry): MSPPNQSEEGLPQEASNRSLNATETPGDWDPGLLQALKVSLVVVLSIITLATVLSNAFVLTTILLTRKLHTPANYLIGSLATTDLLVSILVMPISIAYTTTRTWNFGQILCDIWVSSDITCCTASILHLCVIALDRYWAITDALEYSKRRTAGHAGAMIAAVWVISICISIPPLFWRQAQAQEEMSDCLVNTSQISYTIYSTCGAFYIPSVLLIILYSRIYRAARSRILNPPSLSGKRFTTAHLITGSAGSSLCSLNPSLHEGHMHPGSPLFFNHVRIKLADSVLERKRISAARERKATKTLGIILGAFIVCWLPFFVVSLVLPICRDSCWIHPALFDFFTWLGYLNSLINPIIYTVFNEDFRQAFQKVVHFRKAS

[11] = target: T1, 5-hydroxytryptamine receptor 4; experiment: Compound was tested for its affinity towards 5-hydroxytryptamine 4 receptor
[12] = target: 5-hydroxytryptamine receptor 1D (Homo sapiens, UniProt P28221); experiment: Binding affinity towards cloned human 5-hydroxytryptamine 1D receptor alpha was determined
Chain of 5-hydroxytryptamine receptor 1D (Homo sapiens, UniProt P28221) (P28221 whole entry): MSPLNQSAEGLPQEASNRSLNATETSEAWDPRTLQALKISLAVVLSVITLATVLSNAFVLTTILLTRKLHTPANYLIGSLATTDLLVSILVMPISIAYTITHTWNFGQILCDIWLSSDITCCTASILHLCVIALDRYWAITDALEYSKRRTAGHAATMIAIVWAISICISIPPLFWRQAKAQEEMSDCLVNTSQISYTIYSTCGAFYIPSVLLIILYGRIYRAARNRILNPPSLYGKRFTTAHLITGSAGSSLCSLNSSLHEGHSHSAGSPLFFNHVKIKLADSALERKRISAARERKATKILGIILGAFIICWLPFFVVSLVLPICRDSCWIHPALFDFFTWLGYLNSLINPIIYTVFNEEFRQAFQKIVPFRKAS

[13] = target: T6, 5-hydroxytryptamine receptor 1A (Homo sapiens, UniProt P08908); experiment: Compound was tested for its ability to inhibit forskolin-stimulated activity of adenylate cyclase coupled to human 5-hydroxytryptamine 1A receptor in HeLa cells; value ranges from 95-320; format: functional, cell-based
T6 sequence (P08908 whole entry): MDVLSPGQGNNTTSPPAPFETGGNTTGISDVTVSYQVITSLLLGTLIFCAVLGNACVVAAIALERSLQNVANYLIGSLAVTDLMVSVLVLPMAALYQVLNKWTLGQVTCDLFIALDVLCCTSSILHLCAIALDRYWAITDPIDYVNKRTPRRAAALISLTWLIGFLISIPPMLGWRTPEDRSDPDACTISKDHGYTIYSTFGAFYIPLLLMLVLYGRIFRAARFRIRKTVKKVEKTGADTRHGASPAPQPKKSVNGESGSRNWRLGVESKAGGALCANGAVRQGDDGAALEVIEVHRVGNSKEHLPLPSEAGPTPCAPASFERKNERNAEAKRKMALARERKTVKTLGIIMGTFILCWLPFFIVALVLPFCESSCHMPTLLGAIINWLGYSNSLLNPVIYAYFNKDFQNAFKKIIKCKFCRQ

[14] = target: T7, 5-hydroxytryptamine receptor 2C (Rattus norvegicus, UniProt P08909); experiment: as §1
T7 sequence (P08909 whole entry): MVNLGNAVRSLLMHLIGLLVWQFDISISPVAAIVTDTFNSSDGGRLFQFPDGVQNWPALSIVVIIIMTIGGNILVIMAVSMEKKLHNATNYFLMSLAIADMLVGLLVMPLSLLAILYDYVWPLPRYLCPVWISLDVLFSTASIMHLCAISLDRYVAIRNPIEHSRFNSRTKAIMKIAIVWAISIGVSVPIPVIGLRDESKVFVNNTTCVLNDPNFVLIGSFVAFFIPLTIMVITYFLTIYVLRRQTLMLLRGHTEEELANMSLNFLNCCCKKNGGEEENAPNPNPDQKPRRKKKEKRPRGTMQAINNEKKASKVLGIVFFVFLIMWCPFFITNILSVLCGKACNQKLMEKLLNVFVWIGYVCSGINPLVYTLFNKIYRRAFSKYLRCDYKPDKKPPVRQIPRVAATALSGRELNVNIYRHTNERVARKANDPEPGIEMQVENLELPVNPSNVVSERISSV

[15] = target: Serotonin 3 (5-HT3) receptor; experiment: as §2; format: protein-complex assay
[16] = target: T6, 5-hydroxytryptamine receptor 1A; experiment: Binding affinity towards cloned human 5-hydroxytryptamine 1A receptor was determined
[17] = target: T6, 5-hydroxytryptamine receptor 1A; experiment: Compound was tested for its ability to inhibit forskolin-stimulated activity of adenylate cyclase coupled to human 5-HT 1A receptor in HeLa cells; value ranges from 85-370; format: functional, cell-based

T1 sequence (Q13639 whole entry): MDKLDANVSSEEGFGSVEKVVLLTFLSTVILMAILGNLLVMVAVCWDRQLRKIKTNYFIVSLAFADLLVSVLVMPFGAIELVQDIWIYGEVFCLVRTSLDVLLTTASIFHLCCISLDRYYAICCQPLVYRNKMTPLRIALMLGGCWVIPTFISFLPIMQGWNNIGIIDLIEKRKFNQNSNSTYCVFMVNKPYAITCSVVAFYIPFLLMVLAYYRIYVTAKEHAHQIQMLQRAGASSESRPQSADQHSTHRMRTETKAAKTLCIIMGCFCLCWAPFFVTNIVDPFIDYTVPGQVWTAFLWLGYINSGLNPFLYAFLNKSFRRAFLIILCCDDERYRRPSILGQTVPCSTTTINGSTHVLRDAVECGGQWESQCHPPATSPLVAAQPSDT

SMILES | IC50 [2] [nM] | IC50 [3] [nM] | IC50 [4] [nM] | IC50 [5] [nM] | IC50 [8] [nM] | pD2 [9] | Ki [12] [nM] | Ki [16] [nM] | further results
Cc1ccccc1N1CCN(C(=O)COc2ccc3[nH]cc(CCN)c3c2)CC1 | > 10000 | > 10000 | > 10000 | > 10000 | > 10000 | – | – | – | IC50 [1]: > 10000 nM; IC50 [6]: > 10000 nM; IC50 [7]: > 10000 nM
CNS(=O)(=O)Cc1ccc2[nH]cc(CCN(C)C)c2c1 | – | – | – | – | – | 5.75 | – | – | –
NCCc1c[nH]c2ccc(OCC(=O)NCC(=O)N[C@@H](Cc3ccc(O)cc3)C(N)=O)cc12 | – | – | – | – | – | – | – | – | IC50 [10]: 60 nM
NCCc1c[nH]c2ccc(OCC(=O)N3CCN(c4cccc5ccccc45)CC3)cc12 | > 1000 | > 1000 | > 1000 | > 1000 | > 1000 | – | 0.95 | 8.9 | IC50 [11]: > 1000 nM; EC50 [13]: 95 nM; IC50 [14]: > 1000 nM; IC50 [15]: > 1000 nM
COc1cccc(N2CCN(C(=O)COc3ccc4[nH]cc(CCN)c4c3)CC2)c1 | – | – | – | – | – | – | 2 | 9.8 | EC50 [17]: 85 nM
NCCc1c[nH]c2ccc(OCC(=O)N3CCN(c4ccccc4)CC3)cc12 | – | – | – | – | – | 7.36 | – | – | –
